Assay results taken from ChEMBL document CHEMBL1144945, “Development of progesterone receptor antagonists from 1,2-dihydrochromeno[3,4-f]quinoline agonist pharmacophore” (Bioorg Med Chem Lett, 2003).
pIC50: −log10 of the molar value.

Legend:
Format in all cases: functional
Androgen receptor = target: T1, Androgen receptor (Homo sapiens, UniProt P10275); test: Inhibition of antagonist activity towards human androgen receptor
T1 sequence (P10275 whole entry): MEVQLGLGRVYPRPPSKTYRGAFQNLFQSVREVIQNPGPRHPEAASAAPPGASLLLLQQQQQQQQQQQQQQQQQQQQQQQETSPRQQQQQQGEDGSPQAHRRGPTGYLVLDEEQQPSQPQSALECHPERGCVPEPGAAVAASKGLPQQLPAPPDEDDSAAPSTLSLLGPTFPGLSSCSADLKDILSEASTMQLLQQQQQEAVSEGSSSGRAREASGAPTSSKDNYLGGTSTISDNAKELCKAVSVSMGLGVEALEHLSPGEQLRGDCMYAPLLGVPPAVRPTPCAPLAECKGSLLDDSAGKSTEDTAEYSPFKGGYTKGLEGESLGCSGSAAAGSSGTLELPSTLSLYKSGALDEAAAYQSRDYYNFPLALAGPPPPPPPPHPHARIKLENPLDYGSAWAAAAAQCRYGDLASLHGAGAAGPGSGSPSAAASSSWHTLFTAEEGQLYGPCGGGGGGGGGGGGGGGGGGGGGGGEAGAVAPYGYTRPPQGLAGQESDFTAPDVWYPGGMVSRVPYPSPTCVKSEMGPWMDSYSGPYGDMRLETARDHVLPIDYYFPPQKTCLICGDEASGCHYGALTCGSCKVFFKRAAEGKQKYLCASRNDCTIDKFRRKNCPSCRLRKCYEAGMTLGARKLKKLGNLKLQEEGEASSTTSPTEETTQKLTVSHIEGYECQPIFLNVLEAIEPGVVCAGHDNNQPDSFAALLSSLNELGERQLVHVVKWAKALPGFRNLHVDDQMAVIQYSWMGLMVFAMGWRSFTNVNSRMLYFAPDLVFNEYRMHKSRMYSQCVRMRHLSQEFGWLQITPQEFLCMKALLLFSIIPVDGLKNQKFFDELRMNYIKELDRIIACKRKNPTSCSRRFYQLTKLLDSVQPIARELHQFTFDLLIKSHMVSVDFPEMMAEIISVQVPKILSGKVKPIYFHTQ

[1] = target: T2, Glucocorticoid receptor (Homo sapiens) (UniProt P04150); test: Antagonist efficacy for glucocorticoid (hGR) receptor
T2 sequence (whole entry): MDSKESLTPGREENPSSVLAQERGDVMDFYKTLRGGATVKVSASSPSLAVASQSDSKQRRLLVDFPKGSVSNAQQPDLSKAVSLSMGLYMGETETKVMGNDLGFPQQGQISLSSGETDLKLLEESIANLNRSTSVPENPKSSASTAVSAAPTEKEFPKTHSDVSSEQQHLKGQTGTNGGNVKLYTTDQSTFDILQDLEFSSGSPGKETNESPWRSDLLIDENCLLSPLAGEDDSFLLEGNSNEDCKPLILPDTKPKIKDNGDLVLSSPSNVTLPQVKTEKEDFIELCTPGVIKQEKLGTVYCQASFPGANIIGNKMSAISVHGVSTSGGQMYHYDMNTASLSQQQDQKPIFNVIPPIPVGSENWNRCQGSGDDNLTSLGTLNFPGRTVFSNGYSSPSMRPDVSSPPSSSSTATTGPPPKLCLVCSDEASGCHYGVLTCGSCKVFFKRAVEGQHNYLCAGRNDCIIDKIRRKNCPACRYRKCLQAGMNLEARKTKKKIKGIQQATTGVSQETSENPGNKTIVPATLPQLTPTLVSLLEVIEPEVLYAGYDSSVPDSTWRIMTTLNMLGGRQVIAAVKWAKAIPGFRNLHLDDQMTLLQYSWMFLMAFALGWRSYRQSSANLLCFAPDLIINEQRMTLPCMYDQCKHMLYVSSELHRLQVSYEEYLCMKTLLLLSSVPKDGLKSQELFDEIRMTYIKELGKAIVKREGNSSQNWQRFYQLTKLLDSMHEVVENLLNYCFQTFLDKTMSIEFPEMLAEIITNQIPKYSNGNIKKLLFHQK

[2] = target: T2, Glucocorticoid receptor (Homo sapiens); test: Antagonist efficiency for glucocorticoid (hGR) receptor

CC1CC(C)(C)Nc2ccc3c(c21)COc1c(F)cc(F)cc1-3 (stereo not drawn)
pIC50 (Androgen receptor): 6.83

CC1=CC(C)(C)Nc2ccc3c(c21)COc1c(F)cc(F)cc1-3
Efficacy [1]: 57%

CC1=CC(C)(C)Nc2ccc3c(c21)COc1c(F)cc(Cl)cc1-3
Efficacy [2]: 95%
